Reference: patent US7501513B2, “Immunosuppressive effects of pteridine derivatives” (4 AZA Bioscience NV, priority 2003, dated 2009)
Read-outs that look alike come from different tables or passages of the source. Values belong to the compound of their own block, whether it stands above or below them.

How the values were obtained:
[1] = tested on: Peripheral blood mononuclear cells; assay: Mixed lymphocyte reaction (MLR) test; assay type: cell-based, human; conditions: 50% suppression of the MLR
Description: (§1) Pteridine derivatives were first dissolved (10 mM) in dimethylsulfoxide (hereinafter referred as DMSO) and further diluted in culture medium before use for the following in vitro experiments. The commercially available culture medium consisted of RPMI-1640+10% foetal calf serum (FCS). Some pteridine derivatives described the previous examples were tested in the following lymphocyte activation tests:
(§2) Peripheral blood mononuclear cells (hereinafter referred as PBMC) were isolated from heparinized peripheral blood by density gradient centrifugation over Lymphoprep (Nycomed, Maorstua, Norway). Allogeneic PBMC or Eppstein-Barr Virus-transformed human B cells [commercially available under the trade name RPMI1788 (ATCC name CCL156)] which strongly express B7-1 and B7-2 antigens were used as stimulator cells after irradiation with 30 Gy. MLR was performed in triplicate wells. After 5 days incubation at 37° C., 1 μCi [^3H]-thymidine was added to each cup. After a further 16 hours incubation, cells were harvested and counted in a β-counter. Inhibition of proliferation by a compound (drug) described in some of the previous examples was counted using the formula:
(§3) [formula] wherein cpm is the thymidine count per minute. The MLR assay is regarded by those skilled in the art as an in vitro analogue of the transplant rejection since it is based on the recognition of allogeneic major histocompatibility antigens on the stimulator leukocytes, by responding lymphocytes. Assays for CD3 and CD 28
Pteridine derivatives were first dissolved (10 mM) in dimethylsulfoxide (hereinafter referred as DMSO) and further diluted in culture medium before use for the following in vitro experiments. The commercially available culture medium consisted of RPMI-1640+10% foetal calf serum (FCS). Some pteridine derivatives described in the previous examples (as indicated in table 3 below) were tested in the following mixed lymphocyte reaction (MLR) assay.
as §2, with “CCL156)]which” for “CCL156)] which”
as §3, with “lymphocytes.” for “lymphocytes. Assays for CD3 and CD 28”

[2] = tested on: Highly purified T cells stimulated by anti-CD3 mAb; assay: CD3 assay: T-cell proliferation stimulated by immobilized anti-CD3 mAb + PMA (BrdU); assay type: cell-based, human; conditions: 50% reduction in T-cell proliferation, read-out: CD 3 IC50
Description: as §1
(§4) T cells were purified by removing non-T cells. Briefly, monocytes were removed by cold agglutination. The resulting lymphoid cells were further purified by a cell enrichment immunocolumn [Cellect Human T commercially available from Biotex, Edmonton, Alberta, Canada)] by a process of negative selection. More than 95% of the B cells were removed with this procedure. After depletion, the resulting T cell preparation was highly purified, i.e. these cells could not be activated by phytohaemagglutinin (PHA) or rIL-2 alone at concentrations capable of stimulating RBMC prior to deletion.
(§5) Highly purified T cells (10^6/ml) were stimulated by immobilized anti-CD3 or anti-CD28 monoclonal antibodies (hereinafter referred as mAb) in the presence of phorbol myristate acetate (hereinafter referred as PMA). Anti-CD3 mAb (available from CLB, Amsterdam, Netherlands) were fixed on a 96-microwell plates by incubating the wells with 50 μl of mAb solution (1/800 dilution in culture medium). For anti-CD28 mAb (available from CLB, Amsterdam, Netherlands) 50 μl (1/650 dilution in culture medium) was added directly to the wells. Further, a 20 μl PMA (commercially available from Sigma, St. Louis, Mo., USA) solution (final concentration: 0.5 ng/ml) was added. Subsequently, 20 μl of a pteridine derivative described in the previous examples were added by serial dilution in triplicate wells. Finally 100 μl of the T-cell suspension (10^6/ml) was added. After 48-hour incubation at 37° C. in 5% CO2, 20 μl of a bromo-deuridine (hereinafter referred as BrdU) 100 μM solution (commercially available as Cell Proliferation Elisa from Boehringer-Mannheim Belgium) was added to each well. After a further overnight incubation, T-cell proliferation was measured using a calorimetric immuno-assay for qualification of cell proliferation based on the incorporation of BrdU during DNA synthesis. Optical density (hereinafter referred as OD) was measured by a Behring EL311 plate reader at 450 nm (reference wavelength: 690 nm). Inhibition of proliferation by the pteridine derivative (drug) was counted while using the formula: […]

[3] = tested on: Highly purified T cells stimulated by anti-CD28 mAb; assay: CD28 assay: T-cell proliferation stimulated by anti-CD28 mAb + PMA (BrdU); assay type: cell-based, human; conditions: 50% reduction in T-cell proliferation
Description: as §1, §4, §5

human TNF-α = assay: TNF-α assay: suppression of TNF-α production by LPS-stimulated PBMC (ELISA); assay type: cell-based; conditions: LPS 1 μg/ml, 72 hours
Description: (§6) Peripheral blood mononuclear cells (herein referred as PBMC), in response to stimulation by lipopolysaccharide (LPS), a gram-negative bacterial endotoxin, produce various […], in particular human TNF-α and IL-1 β. Inhibition of the activation of PBMC can therefore be measured by the level of suppression of the production of TNF-α or IL-1 β by PBMC in response to stimulation by LPS.
(§7) Such inhibition measurement was performed as follows: PBMC were isolated from heparinized peripheral blood by density gradient centrifugation over Lymphoprep (commercially available from Nycomed, Norway). LPS was then added to the PMBC suspension in complete medium (10^6 cells/ml) at a final concentration of 1 μg/ml. The pteridine derivative to be tested was added at different concentrations (0.1 μM, 1 μM and 10 μM) and the cells were incubated at 37° C. for 72 hours in 5% CO2. The supernatants were collected, then TNF-α and/or IL-1 β concentrations were measured with respectively an anti-TNF-α antibody or an anti-IL-1 β antibody in a sandwich ELISA (Duo Set ELISA human TNFα, commercially available from R&D Systems, United Kingdom). The calorimetric reading of the ELISA was measured by a Multiskan RC plate reader (commercially available from ThermoLabsystems, Finland) at 450 nm (reference wavelength: 690 nm). Data analysis was performed with Ascent software 2.6. (also from ThermoLabsystems, Finland): a standard curve (recombinant human TNFα) was drawn and the amount (pg/ml) of each sample on the standard curve was determined.
The % suppression of human TNFα production or human IL-1 β by the pteridine derivatives of the invention (drugs) was calculated using the formula: […]
as §6, with “(hereinafter LPS),” for “(LPS),”, “TNF-α.” for “TNF-α and IL-1 β.”, “TNF-α” for “TNF-α or IL-1 β”
as §7, with “TNF-α” for “TNF-α and/or IL-1 β”, “with” for “with respectively”, “anti-TNF-α” for “anti-TNF-α antibody or an anti-IL-1 β”, “TNF-α,” for “TNFα,”, “colorimetric” for “calorimetric”
The % suppression of human TNFα production by the pteridine derivatives of the invention (drugs) was calculated using the formula: […]

Compound: CCOc1nc(N)nc2ncc(-c3ccsc3)nc12 [Example 20, 2-amino-6-(3-thienyl)-4-ethoxy-pteridine]
IC50 ([2]; Homo sapiens): 15 µM
IC50 ([3]; Homo sapiens): 0.7 µM

Compound: CC(=O)Nc1ccc(-c2cnc3nc(N)nc(N4CCOCC4)c3n2)cc1 [Example 72, 2-amino-4-morpholino-6-(4-acetanilide)pteridine]
IC50 ([1]; Table 3): 8.6 µM
IC50 (human TNF-α; Table 4): 8.4 µM

Compound: Nc1ccc(-c2cnc3nc(N)nc(N4CCOCC4)c3n2)cc1 [Example 74, 2-amino-morpholino-6-(4-aminophenyl)pteridine]
IC50 ([1]; Table 3): 1.1 µM
IC50 (human TNF-α; Table 4): 2.5 µM

Compound: CCS(=O)(=O)Nc1cccc(-c2cnc3nc(N)nc(N4CCOCC4)c3n2)c1 [Example 97, 2-amino-4-morpholino-6-(3-ethylsulfonylaminophenyl)pteridine]
IC50 ([1]; Homo sapiens, PBMC, Table 3): 3.3 µM
IC50 (human TNF-α; Homo sapiens, PBMC, Table 4): > 10 µM

Compound: CC(C)(C)OC(=O)N[C@@H](Cc1ccccc1)C(=O)Nc1cccc(-c2cnc3nc(N)nc(N4CCOCC4)c3n2)c1 [Example 98, 2-amino-4-morpholino-6-[3-Boc-(L)-phenylalanine-aminophenyl]pteridine]
IC50 ([1]; Table 3): 3.9 µM
IC50 (human TNF-α; Table 4): 2.9 µM

Compound: Nc1nc(N2CCOCC2)c2nc(-c3ccc(O)cc3)cnc2n1 [Example 102, 2-amino-4-morpholino-6-(4-hydroxyphenyl)pteridine]
IC50 ([1]; Homo sapiens, PBMC, Table 3): 4.3 µM
IC50 (human TNF-α; Homo sapiens, PBMC, Table 4): 2.1 µM

Compound: CCOc1ccc(-c2cnc3nc(N)nc(N4CCOCC4)c3n2)cc1 [Example 103, 2-amino-4-morpholino-6-(4-ethoxyphenyl)pteridine]
IC50 ([1]; Homo sapiens, PBMC, Table 3): 3.7 µM
IC50 (human TNF-α; Homo sapiens, PBMC, Table 4): > 10 µM

Compound: CCCOc1ccc(-c2cnc3nc(N)nc(N4CCOCC4)c3n2)cc1 [Example 107, 2-amino-4-morpholino-6-(4-propoxy-phenyl)pteridine]
IC50 ([1]; Homo sapiens, PBMC, Table 3): 6.8 µM
IC50 (human TNF-α; Homo sapiens, PBMC, Table 4): > 10 µM

Compound: COc1ccc(-c2cnc3nc(N)nc(N4CCC(C)CC4)c3n2)cc1OC [Example 115]
IC50 ([1]; Table 3): 0.8 µM
IC50 (human TNF-α; Table 4): 0.3 µM

The next lines start with results.

IC50 ([1]; Homo sapiens, PBMC, Table 1): 8.3 µM
IC50 (human TNF-α; Homo sapiens, PBMC, Table 2): > 10 µM
Compound: CCOc1nc(N)nc2ncc(-c3cccc(OC)c3)nc12 [Example 15, 2-amino-6-(m-methoxyphenyl)-4-ethoxy-pteridine]
IC50 ([2]; Homo sapiens): 20 µM
IC50 ([3]; Homo sapiens): 7 µM

IC50 ([1]; Table 1): > 10 µM
Compound: CCOc1nc(N)nc2ncc(-c3ccc(F)c(F)c3)nc12 [Example 16]
IC50 [2]: 9 µM
IC50 [3]: 4 µM

IC50 ([1]; Homo sapiens, PBMC, Table 1): 10 µM
Compound: CCOc1nc(N)nc2ncc(-c3ccc(C(F)(F)F)cc3)nc12 [Example 18, 2-amino-6-(p-trifluoromethylphenyl)-4-ethoxy-pteridine]
IC50 ([2]; Homo sapiens): 10 µM
IC50 ([3]; Homo sapiens): 0.8 µM

IC50 ([1]; Homo sapiens, PBMC, Table 1): 8.2 µM
IC50 (human TNF-α; Homo sapiens, PBMC, Table 2): 8.5 µM
Compound: CCOc1nc(N)nc2ncc(-c3ccc(CC)cc3)nc12 [Example 25, 2-amino-6-(p-ethylphenyl)-4-ethoxy-pteridine]
IC50 ([2]; Homo sapiens): 10 µM
IC50 ([3]; Homo sapiens): 10 µM

IC50 ([1]; Homo sapiens, PBMC, Table 1): 10 µM
IC50 (human TNF-α; Homo sapiens, PBMC, Table 2): 6.7 µM
Compound: Cc1ccc(-c2cnc3nc(N)nc(OC(C)C)c3n2)cc1C [Example 32, 2-amino-6-(3,4-dimethylphenyl)-4-isopropoxypteridine]

IC50 ([1]; Table 3): 6 µM
IC50 (human TNF-α; Table 4): 3.4 µM
Compound: COc1ccc(-c2cnc3nc(N)nc(N(CCO)CCO)c3n2)cc1OC [Example 112]

IC50 ([1]; Table 3): 6 µM
IC50 (human TNF-α; Table 4): 7.1 µM
Compound: COc1ccc(-c2cnc3nc(N)nc(NCCc4ccccc4)c3n2)cc1OC [Example 114]

IC50 ([1]; Table 3): 4.1 µM
IC50 (human TNF-α; Table 4): 7.2 µM
Compound: COc1ccc(-c2cnc3nc(N)nc(NCc4cccs4)c3n2)cc1OC [Example 116]

IC50 ([1]; Table 3): 0.4 µM
IC50 (human TNF-α; Table 4): 0.5 µM
Compound: COc1ccc(-c2cnc3nc(N)nc(N4CCSCC4)c3n2)cc1OC [Example 118]

IC50 ([1]; Table 3): 0.5 µM
IC50 (human TNF-α; Table 4): 0.2 µM
Compound: CC[C@@H](C)Nc1nc(N)nc2ncc(-c3ccc(OC)c(OC)c3)nc12 [Example 119]

IC50 ([1]; Table 3): 0.2 µM
IC50 (human TNF-α; Table 4): 0.3 µM
Compound: CC[C@H](C)Nc1nc(N)nc2ncc(-c3ccc(OC)c(OC)c3)nc12 [Example 120]
